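Tested at 5 concentrations; 48 h exposure; 96-well plates; endpoints linearly interpolated, else capped at highest concentration. GI50 is the concentration that inhibits growth by half.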 Active and inactive are the calls of the source. No stated cut-off is given here; in the data, active = GI50 up to about 1.1 µM and inactive = higher.
Columns and labels:
Test in all cases: DTP human tumour cell line panel, 48 h
COLO 205 = test system: COLO 205
HCT-116 = test system: HCT-116
CCRF-CEM = test system: CCRF-CEM
T47D = test system: T47D
SK-MEL-5 = test system: SK-MEL-5
SK-OV-3 = test system: SK-OV-3
SF-539 = test system: SF-539
MCF7 = test system: MCF7
SR = test system: SR
OVCAR-3 = test system: OVCAR-3
SN12C = test system: SN12C
IGROV-1 = test system: IGROV-1
NCI-H522 = test system: NCI-H522
A549 = test system: A549
MOLT-4 = test system: MOLT-4
TK-10 = test system: TK-10
SW-620 = test system: SW-620
HOP-92 = test system: HOP-92
RPMI-8226 = test system: RPMI-8226

Structure (SMILES): SCc1ccc(CS)s1
- GI50 (COLO 205): > 100 µM (inactive)
- GI50 (HCT-116): > 100 µM (inactive)
- GI50 (CCRF-CEM): > 100 µM (inactive)
- GI50 (T47D): > 100 µM (inactive)
- GI50 (SK-MEL-5): > 100 µM (inactive)
- GI50 (SK-OV-3): > 100 µM (inactive)
- GI50 (SF-539): > 100 µM (inactive)
- GI50 (MCF7): > 100 µM (inactive)
- GI50 (SR): > 100 µM (inactive)
- GI50 (OVCAR-3): > 100 µM (inactive)
- GI50 (SN12C): > 100 µM (inactive)
- GI50 (IGROV-1): > 100 µM (inactive)
- GI50 (NCI-H522): > 100 µM (inactive)
- GI50 (A549): > 100 µM (inactive)
- GI50 (MOLT-4): > 100 µM (inactive)
- GI50 (TK-10): > 100 µM (inactive)
- GI50 (SW-620): > 100 µM (inactive)
- GI50 (HOP-92): 15.3 µM (inactive)

Structure (SMILES): CCOC(=O)c1ccc(NCC#CCN2CCOCC2)cc1
- GI50 (COLO 205): 38 µM (inactive)
- GI50 (RPMI-8226): > 100 µM (inactive)
- GI50 (HCT-116): 53 µM (inactive)
- GI50 (CCRF-CEM): 60.1 µM (inactive)
- GI50 (T47D): > 100 µM (inactive)
- GI50 (SK-MEL-5): 26.9 µM (inactive)
- GI50 (SK-OV-3): > 100 µM (inactive)
- GI50 (SF-539): > 100 µM (inactive)
- GI50 (MCF7): 66.4 µM (inactive)
- GI50 (SR): > 100 µM (inactive)
- GI50 (OVCAR-3): > 100 µM (inactive)
- GI50 (SN12C): > 100 µM (inactive)
- GI50 (IGROV-1): > 100 µM (inactive)
- GI50 (A549): 83.9 µM (inactive)
- GI50 (MOLT-4): > 100 µM (inactive)
- GI50 (SW-620): > 100 µM (inactive)
- GI50 (HOP-92): > 100 µM (inactive)

Structure (SMILES): CC(=O)SCCC(NC(=S)Nc1ccccc1)P(=O)(Oc1ccccc1)Oc1ccccc1 (stereo not given)
- GI50 (COLO 205): > 100 µM (inactive)
- GI50 (HCT-116): > 100 µM (inactive)
- GI50 (CCRF-CEM): > 100 µM (inactive)
- GI50 (T47D): > 100 µM (inactive)
- GI50 (SK-OV-3): > 100 µM (inactive)
- GI50 (SF-539): > 100 µM (inactive)
- GI50 (MCF7): > 100 µM (inactive)
- GI50 (SR): > 100 µM (inactive)
- GI50 (OVCAR-3): > 100 µM (inactive)
- GI50 (SN12C): > 100 µM (inactive)
- GI50 (IGROV-1): > 100 µM (inactive)
- GI50 (NCI-H522): > 100 µM (inactive)
- GI50 (A549): > 100 µM (inactive)
- GI50 (MOLT-4): > 100 µM (inactive)
- GI50 (TK-10): 60.8 µM (inactive)
- GI50 (SW-620): > 100 µM (inactive)
- GI50 (HOP-92): > 100 µM (inactive)

Structure (SMILES): COC(=O)/C=c1/c2ccccc2n2nc3ccccc3c12
- GI50 (COLO 205): 27.6 µM (inactive)
- GI50 (RPMI-8226): 18.4 µM (inactive)
- GI50 (HCT-116): 22.8 µM (inactive)
- GI50 (CCRF-CEM): 11.4 µM (inactive)
- GI50 (T47D): > 100 µM (inactive)
- GI50 (SK-MEL-5): 31.6 µM (inactive)
- GI50 (SK-OV-3): 16 µM (inactive)
- GI50 (SF-539): 26.6 µM (inactive)
- GI50 (MCF7): 42.6 µM (inactive)
- GI50 (SR): 4.03 µM (inactive)
- GI50 (OVCAR-3): > 100 µM (inactive)
- GI50 (SN12C): 66.8 µM (inactive)
- GI50 (IGROV-1): > 100 µM (inactive)
- GI50 (NCI-H522): 29 µM (inactive)
- GI50 (A549): 65.9 µM (inactive)
- GI50 (MOLT-4): 6.01 µM (inactive)
- GI50 (TK-10): 31.6 µM (inactive)
- GI50 (SW-620): 65 µM (inactive)

Structure (SMILES): Oc1ccc(/C=C/c2ccc3cccc(O)c3n2)cc1O
- GI50 (COLO 205): 14.3 µM (inactive)
- GI50 (RPMI-8226): 0.692 µM (active)
- GI50 (HCT-116): 3.77 µM (inactive)
- GI50 (CCRF-CEM): 0.759 µM (active)
- GI50 (T47D): 1.75 µM (inactive)
- GI50 (SK-MEL-5): 3.02 µM (inactive)
- GI50 (SK-OV-3): 23.7 µM (inactive)
- GI50 (SF-539): 3.13 µM (inactive)
- GI50 (MCF7): 2.42 µM (inactive)
- GI50 (SR): 3.22 µM (inactive)
- GI50 (OVCAR-3): 10.9 µM (inactive)
- GI50 (SN12C): 2.94 µM (inactive)
- GI50 (IGROV-1): 1.44 µM (inactive)
- GI50 (A549): 4.23 µM (inactive)
- GI50 (MOLT-4): 0.973 µM (active)
- GI50 (TK-10): 9.31 µM (inactive)
- GI50 (SW-620): 4.24 µM (inactive)
- GI50 (HOP-92): 15.9 µM (inactive)

Structure (SMILES): Cc1ccc(-c2cc(C(F)(F)F)nn2-c2ccc(S(N)(=O)=O)cc2)cc1 [CELECOXIB]
- GI50 (COLO 205): 16.1 µM (inactive)
- GI50 (RPMI-8226): 3.85 µM (inactive)
- GI50 (HCT-116): 55 µM (inactive)
- GI50 (CCRF-CEM): 14 µM (inactive)
- GI50 (T47D): 16.8 µM (inactive)
- GI50 (SK-MEL-5): 14.8 µM (inactive)
- GI50 (SK-OV-3): 18.3 µM (inactive)
- GI50 (SF-539): 18.1 µM (inactive)
- GI50 (MCF7): 17.5 µM (inactive)
- GI50 (SR): 16.1 µM (inactive)
- GI50 (OVCAR-3): 17.6 µM (inactive)
- GI50 (SN12C): 15.6 µM (inactive)
- GI50 (IGROV-1): 15.4 µM (inactive)
- GI50 (A549): 14.4 µM (inactive)
- GI50 (MOLT-4): 17.3 µM (inactive)
- GI50 (TK-10): 18.8 µM (inactive)
- GI50 (SW-620): 16.9 µM (inactive)

From ChEMBL document CHEMBL1201862, “PubChem BioAssay data set” (2004)
